Experimental data published in patent US6818741B2, “Alpha-fetoprotein peptides and uses therof” (CLF Medical Technology Acceleration Program, Inc., priority 2000, dated 2004).
Entries after “also recorded” stand apart in the source; their conditions may differ. Square brackets hold non-standard residues; d marks the D form. Ends that are not written are not given here. Peptide text beside a SMILES is read from it. Hyp = O=C(O)[C@@H]1C[C@@H](O)CN1

Tests used:
[1] = tested on: E2-stimulated growth of immature mouse uterus; assay: Immature mouse uterine growth assay (anti-estrotrophic activity); format: in vivo; settings: for inhibition of the uterotrophic effect of estradiol (normalized uterine weight, E2+ Pep vs E2): Pep i.p. one hour before E2, uteri weighed 22 hours later; for dose of maximal (optimal) inhibition of estrogen-stimulated growth of mouse uterus: i.p., dose-response; for effect of 4 M urea treatment on biological activity of stored peptide: stored (aged) peptide, brief treatment with 4 M urea; for biological activity of gel-filtration fraction: aged peptide, 1 μg i.p.
From the text: (§1) Twenty-two hours later, uteri were dissected and weighed. […] (FIG. 1a) Peptide dose-response.
(§2) Immature Mouse Uterine Growth Assay.

[2] = tested on: MCF-7 human breast cancer xenografts; assay: Human breast cancer xenograft assay, MCF-7; format: in vivo; settings: E2 implant; peptide 1 μg i.p. twice a day; tamoxifen 50 μg i.p. once a day; 30-day observation; vs E2 alone
Description: (§3) Tumors were implanted as described in Materials and Methods. […] There was a minimum of 5 mice per group. (FIG. 9a) MCF-7 tumors.
Human Breast Cancer Xenograft Assay. A bioassay for anti-breast cancer activity was performed according to Bennett et al. (23;24). Confluent MCF-7 human breast cancer cells were trypsinized into suspension and pelleted by centrifugation at 200× g. The pellet was then solidified into a fibrin clot by exposing it to 10 μl of fibrinogen (50 mg/ml) and 10 μl of thrombin (50 units/ml). The solid mass of MCF-7 cells was then cut into pieces 1.5 mm in diameter. A tumor segment of ˜1.5 mm in diameter was implanted under the kidney capsule of an immunodeficient ICR-SCID male mouse (Taconic Farms) that weighed about 25 g. Estrogen supplementation was accomplished by s.c. implantation of a silastic tubing capsule containing solid E2 inserted on the day of tumor implantation. Peptide was injected i.p. every twelve hours at a dose of 1 μg per mouse. Tumor growth was monitored during survival laparotomy at 10-day intervals by measurement of the diameters of the short (d) and long axes (D) of each tumor, using a dissecting microscope equipped with an ocular micrometer. Tumor volumes were calculated using the formula (π/6)(d)^2D, assuming the tumor shape to be an ellipsoid of revolution around its long axis (D). There were five to seven replicate mice included in each treatment group. Mean tumor volume±standard error in each group was calculated for display of growth curves. Significance of differences between groups were tested using the one-sided Wilcoxon Sum of Ranks Test.

[3] = Shelf-life (storage) studies of lyophilized peptide, read out in the immature mouse uterine growth assay; format: physicochemical; settings: for shelf-life: storage in the lyophilized state, tested in immature mouse uterine growth assay; for time in storage after which anti-estrotrophic activity was lost (diminished to insignificant levels): lyophilized, −20° C.
From the text: as §1, §2

[4] = Toxicity to mice in the uterine growth assay; format: in vivo; settings: even at an effective dose of 1 mg/mouse
From the text: as §2

estrogen receptor = target: T1, estrogen receptor (Oryctolagus cuniculus, UniProt G1SML6); assay: Assessment of estrogen receptor antagonism ([3H]E2 binding, uterine cytosol); parameters: species or system rabbit; settings: for interference with E2 binding to its receptor: peptide concentration range 10^−10 M to 10^−5 M
T1 sequence (G1SML6 1-598): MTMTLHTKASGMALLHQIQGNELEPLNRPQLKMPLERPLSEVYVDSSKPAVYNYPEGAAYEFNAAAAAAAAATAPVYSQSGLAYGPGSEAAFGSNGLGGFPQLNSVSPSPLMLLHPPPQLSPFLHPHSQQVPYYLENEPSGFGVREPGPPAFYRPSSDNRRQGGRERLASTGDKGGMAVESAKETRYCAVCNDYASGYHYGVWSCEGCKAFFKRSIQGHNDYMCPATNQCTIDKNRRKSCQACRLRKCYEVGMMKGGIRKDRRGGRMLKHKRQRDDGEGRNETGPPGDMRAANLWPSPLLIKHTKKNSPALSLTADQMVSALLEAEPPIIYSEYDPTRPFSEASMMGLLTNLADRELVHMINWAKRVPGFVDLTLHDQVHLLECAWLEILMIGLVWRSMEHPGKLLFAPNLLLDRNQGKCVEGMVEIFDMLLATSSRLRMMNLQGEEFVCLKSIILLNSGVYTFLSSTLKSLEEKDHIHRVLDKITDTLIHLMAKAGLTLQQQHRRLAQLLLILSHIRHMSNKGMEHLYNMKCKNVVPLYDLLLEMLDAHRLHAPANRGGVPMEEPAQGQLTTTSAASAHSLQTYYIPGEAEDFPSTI
Description: Assessment of Estrogen Receptor Antagonism. Commercially obtained rabbit uteri (Pel-Freez Biological, Rogers, Ark.) were used as a source of estrogen receptor. […] Total count tubes received 20 μl of [^3H] estradiol and 180 μl of assay buffer.

[5] = tested on: MCF-7/Tam human breast cancer xenografts; assay: Human breast cancer xenograft assay, tamoxifen-resistant MCF-7 subline; format: in vivo; settings: E2 implant; peptide 1 μg i.p. twice a day; tamoxifen 50 μg i.p. once a day; day 30; vs E2 alone
Description: as §3
Cell Lines. T47D and MDA-MB-231 human breast cancer cell lines were purchased from the American Type Culture Collection (Manassas, Va.). Growth medium for T47D cells consisted of RPMI 1640 (Life Technologies, Germantown, Md.) supplemented with 10% fetal bovine serum (Life Technologies) and 8 μg/ml bovine insulin (Sigma, St. Louis, Mo.). Growth medium for MDA-MB-231 consisted of Dulbecco's Modified Eagle Medium (Life Technologies) supplemented with L-glutamine (2 mM), non-essential amino acids (1%, Life Technologies) and bovine insulin (1 μg/ml). The MCF-7 cell line was obtained from Dr. Alberto C. Baldi, Institute of Experimental Biology and Medicine, Buenos Aires, Argentina, and was maintained as previously describedby Gierthy et al. (1991).
Human Breast Cancer Xenograft Assay. […] Tumor growth was monitored during survival laparotomy at 10-day intervals by measurement of the diameters of the short (d) and long axes (D) of each tumor, using a dissecting microscope equipped with an ocular micrometer. Tumor volumes were calculated using the formula (π/6)(d)^2D, assuming the tumor shape to be an ellipsoid of revolution around its long axis (D). […] Mean tumor volume±standard error in each group was calculated for display of growth curves. […]

[6] = tested on: T47D human breast cancer xenografts; assay: Human breast cancer xenograft assay, T47D; format: in vivo; settings: E2 supplementation; 30-day observation; vs E2 alone
[7] = tested on: estrogen-receptor-negative MDA-MB-231 human breast cancer xenografts; assay: Human breast cancer xenograft assay, MDA-MB-231; format: in vivo; settings: ER− tumor, 30 day observation
[8] = tamoxifen users; cited from earlier work
[9] = tested on: growth of the immature mouse uterus; assay: Uterotrophic effect of test agent alone on immature mouse uterus; format: in vivo; settings: even at a dose of 10 μg/mouse
Description: Various doses indicated on the abscissa of each test agent were injected i.p. Twenty-two hours later uteri were harvested and weighed.
Immature Mouse Uterine Growth Assay. A bioassay for anti-estrotrophic activity was performed using an immature mouse uterine growth assay (22). Swiss/Webster female mice, 6-8 g in body weight (13-15 days old), were obtained from Taconic Farms (Germantown, N.Y.). […] In a typical experiment, each group received two sequential intraperitoneal injections spaced one hour apart. Test material or vehicle control for that material was contained in the first injectant. Estradiol (E2) or vehicle control for E2 was contained in the second injectant. Twenty-two hours after the second injection, uteri were dissected, trimmed free of mesenteries, and immediately weighed. The uterine weights were normalized to mouse body weights (mg uterine weight/g of body weight) to compensate for differences in body weight among litters of the same age. Experiments employed a minimum of five mice per group, and the mean normalized uterine weight±standard error for each group was calculated. Percent growth inhibition in a test group was calculated from the normalized uterine wet weights as described below.

[10] = tested on: tamoxifen-stimulated growth of immature mouse uterus; assay: Inhibition of tamoxifen-stimulated growth of immature mouse uterus; format: in vivo; settings: Pep i.p. one hour before Tam, uteri weighed 22 hours later
From the text: as §2

[11] = Preliminary pharmacokinetic studies in mice; format: in vivo, mouse

In the case of `CSCC[C@@H]1NC(=O)[C@H](CCC(=O)O)NC(=O)[C@H](CCC(N)=O)NC(=O)CNC(=O)[C@@H]2C[C@@H](O)CN2C(=O)[C@H](CC(N)=O)NC(=O)[C@H](C(C)C)NC(=O)[C@@H]2C[C@@H](O)CN2C(=O)[C@H]([C@@H](C)O)NC1=O` [cyclo-(SEQ ID NO: 5: EMTOVNOGQ), cyclo-(EMTOVNOGQ)] (cyclo(EMT[Hyp]VN[Hyp]GQ)), the anti-estrotrophic activity ([1]; doses higher than 10 μg/mouse) was “retained significant anti-estrotrophic activity”, the “effect on estrogen-dependent growth (tumor volume) of MCF-7 xenografts” value (shortened to “effect on estrogen-dependent growth”) [2] was “significantly inhibited” and the shelf-life [3] was “indefinite shelf-life”. The “toxicity to the mice” value [4] was “no evidence of toxicity”.
In the case of `O=C(c1ccc(OCCN2CCCCC2)cc1)c1c(-c2ccc(O)cc2)sc2cc(O)ccc12` [raloxifene, reference compound], the “inhibition of estradiol binding to its receptor” value (estrogen receptor; concentration of 100 nM) was “completely inhibited”.
For `CC/C(=C(\c1ccccc1)c1ccc(OCCN(C)C)cc1)c1ccccc1` [tamoxifen, reference compound], the “effect on estrogen-dependent growth” value [2] was “no increase in tumor volume”, the “effect on growth (tumor volume) of tamoxifen-resistant MCF-7 subline xenografts” value [5] was “only minimally effective” and the “effect on growth (tumor volume) of T47D xenografts” value [6] was “prevented growth”. The “effect on growth (tumor volume) of MDA-MB-231 xenografts” value (shortened to “effect … of MDA-MB-231 xenografts”) [7] was “did not affect the growth” and the “users in whom uterine cancer is caused (side effect)” value [8] was 0.2%.
In the case of “EMTOVNOG (EMT[Hyp]VN[Hyp]G) [SEQ ID NO: 4: EMTOVNOG, linear octapeptide where O is hydroxyproline (4-hydroxyproline for both prolines)]”, the “inhibition of the uterotrophic effect of estradiol (normalized uterine weight, E2+ Pep vs E2)” value [1] was “inhibited”, the “inhibition of the uterotrophic effect of estradiol (normalized uterine weight, E2+ Pep vs E2)” value ([1]; listed as AFP-derived peptide) was “significantly different” and the “dose of maximal (optimal) inhibition of estrogen-stimulated growth of mouse uterus” value [1] was 1 μg/mouse. The “effect on estrogen-dependent growth” value [2] was “inhibited; also recorded: no significant increase in tumor volume”, the “effect on growth (tumor volume) of tamoxifen-resistant MCF-7 subline xenografts” value [5] was “completely stopped the growth” and the “effect on growth (tumor volume) of T47D xenografts” value [6] was “completely prevented tumor growth”. The “effect … of MDA-MB-231 xenografts” value [7] was “no effect”, the “effect … of MDA-MB-231 xenografts” value ([7]; listed as AFP-derived peptide) was “no differences in tumor volumes” and the “interference with E2 binding to its receptor” value (estrogen receptor) was “no interference”. For the same compound, the “interference with E2 binding to its receptor” value (estrogen receptor; listed as linear hydroxyproline-containing octapeptide) was “did not interfere”, the uterotrophic effect [9] was “no uterotrophic effect whatsoever” and the “inhibition of tamoxifen's uterotrophic effect (normalized uterine weight, Tam+ Pep vs Tam)” value [10] was “significantly inhibited”. The “inhibition of tamoxifen's uterotrophic effect (normalized uterine weight, Tam+ Pep vs Tam)” value ([10]; listed as AFP-derived peptide) was “significantly different”, the “inhibition of tamoxifen's uterotrophic effect (normalized uterine weight, Tam+ Pep vs Tam)” value ([10]; listed as Peptide) was “inhibited” and the shelf-life [3] was “indefinite shelf-life”. For the same compound, the biological half-life [11] was “two to three”.
With “EMTPVNPG [SEQ ID NO: 6: EMTPVNPG, native AFP-derived octapeptide, amino acids 472-479 of alpha-fetoprotein, reference compound]” the “dose of maximal (optimal) inhibition of estrogen-stimulated growth of mouse uterus” value [1] was about 1 μg/mouse, the “effect of 4 M urea treatment on biological activity of stored peptide” value [1] was “regenerated” and the “effect of excipient on shelf-life of the peptide” value (“effect of excipient” for short) ([3]; excipient: dodecylmaltoside) was “significantly prolonged shelf-life”. The “effect of excipient” value ([3]; excipient: mannitol) was “significantly prolonged shelf-life”, the “effect of excipient” value ([3]; excipient: sucrose) was “did not do so” and the “time in storage after which anti-estrotrophic activity was lost (diminished to insignificant levels)” value [3] was “four to five”.
In the case of “EMTPVNPGQ [SEQ ID NO: 7: EMTPVNPGQ, linear nonapeptide, glutamine residue added to the C-terminus of the native octapeptide]”, the “dose of maximal (optimal) inhibition of estrogen-stimulated growth of mouse uterus” value [1] was 1 μg/mouse.
For “QMTPVNPG [SEQ ID NO: 2: QMTPVNPG, linear octapeptide analog of the AFP octapeptide, N-terminal glutamic acid substituted with glutamine]”, the “biological activity of gel-filtration fraction” value ([1]; higher molecular weight fraction) was “biologically inactive”, the “biological activity of gel-filtration fraction” value ([1]; lower molecular weight fraction) was “active” and the “dose of maximal (optimal) inhibition of estrogen-stimulated growth of mouse uterus” value [1] was 1 μg/mouse. For the same compound, the “effect of 4 M urea treatment on biological activity of stored peptide” value [1] was “restored its biological activity”, the “biological activity of aged peptide” value ([1]; stored in the lyophilized state at −20° C. for over one year) was “completely biologically inactive” and the “time in storage after which anti-estrotrophic activity was lost (diminished to insignificant levels)” value [3] was “five and four to five”. The shelf-life [3] was “stored somewhat better than the native octapeptide”.
For “cyclo-(EMTPVNPGQ) (head-to-tail cyclization) [head-to-tail cyclized nonapeptide]”, the “inhibition of estrogen-stimulated growth of immature mouse uterus” value ([1]; at the optimal dose of the linear peptides (1 μg)) was “very active”, the “effect of 4 M urea treatment on biological activity of stored peptide” value [1] was “restored the optimal biological activity” and the shelf-life [3] was “somewhat extended but still rather limited shelf-life”. For the same compound, the “biological activity after prolonged storage” value ([3]; storage of six months) was “significant, albeit not optimal, biological activity”.
